Broadly, the Kd is a measure of binding affinity in units of concentration.

Drawing on patent US12366572B2, “Activation of bioluminescence by structural complementation” (Promega Corporation, priority 2013, dated 2025), this text covers Kd for 89 compounds.

In the test the target is NLpoly 11S (Oplophorus gracilirostris, UniProt Q9GV45, A31E/A60N/A81I/D135N/F58L/F95D/G184S/G42A/G62A/G78A/G94A/G98A/H120P/I103V/I117V/I134L/K70R/L176M/L26M/L54V/L73R/L99Q/M102E/N171T/P142E/Q151K/Q38E/Q45L/T27V/V71I/Y165I). As to the kind of experiment: biochemical. Format: binding.
Sequence of NLpoly 11S (Q9GV45 26-184 with the stated changes limits assumed): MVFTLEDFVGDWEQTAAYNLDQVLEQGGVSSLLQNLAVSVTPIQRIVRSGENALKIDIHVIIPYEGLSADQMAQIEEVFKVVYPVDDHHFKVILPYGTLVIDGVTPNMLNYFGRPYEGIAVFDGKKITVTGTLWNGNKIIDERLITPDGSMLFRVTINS
`CC[C@H](C)[C@H](NC(=O)[C@H](CCCCN)NC(=O)[C@H](CCC(=O)O)NC(=O)[C@H](Cc1ccccc1)NC(=O)[C@H](CC(C)C)NC(=O)[C@H](CCCNC(=N)N)NC(=O)[C@H](Cc1ccc(O)cc1)NC(=O)CNC(=O)[C@@H](NC(=O)[C@@H](NC(C)=O)C(C)C)[C@@H](C)O)C(=O)N[C@@H](CO)C(N)=O` [array2.19, VTGYRLFEKIS] registered a Kd of 0.605 µM.

“Ac-VEGYRLFEEAS-NH2 [array2.80, VEGYRLFEEAS]” came in with a Kd of 1420 µM. Under “Ac-VEGYRLFEKAL-NH2 [array2.101, VEGYRLFEKAL]” stands 12.6 µM; under “Ac-VEGYRLFEKAS-NH2 [array2.74, VEGYRLFEKAS]”, 4.14 µM. “Ac-VEGYRLFEKEL-NH2 [array2.102, VEGYRLFEKEL]” had a Kd of 5.79 µM.

For “Ac-VEGYRLFEKES-NH2 [array2.75, VEGYRLFEKES]”, the Kd was 2.97 µM. Then “Ac-VEGYRLFEKIL-NH2 [array2.100, VEGYRLFEKIL]”, with 10.6 µM; and “Ac-VEGYRLFEKIS-NH2 [array2.73, VEGYRLFEKIS]”, with 2.15 µM; and “Ac-VEGYRLFEQAL-NH2 [array2.104, VEGYRLFEQAL]”, with 336 µM.

In the case of “Ac-VEGYRLFEQAS-NH2 [array2.77, VEGYRLFEQAS]”, the Kd came to 48.3 µM. Under “Ac-VEGYRLFEQES-NH2 [array2.78, VEGYRLFEQES]” stands 252 µM; under “Ac-VEGYRLFEQIS-NH2 [array2.76, VEGYRLFEQIS]”, 52.8 µM.

Compound “Ac-VEGYRLFKEAL-NH2 [array2.89, VEGYRLFKEAL]” had a Kd of 42.4 µM.

In turn, “Ac-VEGYRLFKEAS-NH2 [array2.62, VEGYRLFKEAS]” yielded a Kd of 22.1 µM. “Ac-VEGYRLFKEEL-NH2 [array2.90, VEGYRLFKEEL]”: the Kd was 101 µM. With “Ac-VEGYRLFKEES-NH2 [array2.63, VEGYRLFKEES]”, the affinity, expressed as Kd, was 220 µM. Then “Ac-VEGYRLFKEIL-NH2 [array2.88, VEGYRLFKEIL]”, with 17.8 µM; and “Ac-VEGYRLFKEIS-NH2 [array2.61, VEGYRLFKEIS]”, with 14.4 µM.

“Ac-VEGYRLFKKAL-NH2 [array2.83, VEGYRLFKKAL]” showed a Kd of 1.59 µM. Against the preceding compound, the Kd is about 9.1-fold lower. Under “Ac-VEGYRLFKKAS-NH2 [array2.56, VEGYRLFKKAS]” stands 0.641 µM; under “Ac-VEGYRLFKKEL-NH2 [array2.84, VEGYRLFKKEL]”, 1.41 µM. Take “Ac-VEGYRLFKKES-NH2 [array2.57, VEGYRLFKKES]”: the affinity, expressed as Kd, was 0.891 µM.

For the compound “Ac-VEGYRLFKKIL-NH2 [array2.82, VEGYRLFKKIL]”, the affinity, expressed as Kd, was 0.563 µM. Then “Ac-VEGYRLFKKIS-NH2 [array2.55, VEGYRLFKKIS]”, with 0.078 µM. Then “Ac-VEGYRLFKQAL-NH2 [array2.86, VEGYRLFKQAL]”, with 2.27 µM; and “Ac-VEGYRLFKQAS-NH2 [array2.59, VEGYRLFKQAS]”, with 2.09 µM. Turning to “Ac-VEGYRLFKQEL-NH2 [array2.87, VEGYRLFKQEL]”, binding was characterised by a dissociation constant (Kd) of 12.6 µM.

Regarding “Ac-VEGYRLFKQIL-NH2 [array2.85, VEGYRLFKQIL]”, the Kd stood at 10.3 µM.

“Ac-VEGYRLFKQIS-NH2 [array2.58, VEGYRLFKQIS]”: the affinity, expressed as Kd, was 2.09 µM. Under “Ac-VEGYRLFQEAL-NH2 [array2.98, VEGYRLFQEAL]” stands 99.9 µM. Under “Ac-VEGYRLFQEAS-NH2 [array2.71, VEGYRLFQEAS]” stands 24 µM; under “Ac-VEGYRLFQEIS-NH2 [array2.70, VEGYRLFQEIS]”, 230 µM. Under “Ac-VEGYRLFQKAL-NH2 [array2.92, VEGYRLFQKAL]” stands 2.02 µM; under “Ac-VEGYRLFQKAS-NH2 [array2.65, VEGYRLFQKAS]”, 1.93 µM; under “Ac-VEGYRLFQKEL-NH2 [array2.93, VEGYRLFQKEL]”, 1.69 µM. In turn, “Ac-VEGYRLFQKES-NH2 [array2.66, VEGYRLFQKES]” displayed a Kd of 2.87 µM.

Consider “Ac-VEGYRLFQKIL-NH2 [array2.91, VEGYRLFQKIL]”, for which binding was put at a Kd of 2.08 µM.

The compound “Ac-VEGYRLFQKIS-NH2 [array2.64, VEGYRLFQKIS]” gave a Kd of 0.586 µM.

Take “Ac-VEGYRLFQQAL-NH2 [array2.95, VEGYRLFQQAL]”: the Kd was 18.8 µM.

For “Ac-VEGYRLFQQAS-NH2 [array2.68, VEGYRLFQQAS]”, the affinity, expressed as Kd, was 20 µM. Then “Ac-VEGYRLFQQEL-NH2 [array2.96, VEGYRLFQQEL]”, with 99.4 µM. The compound “Ac-VEGYRLFQQIL-NH2 [array2.94, VEGYRLFQQIL]” gave a Kd of 9.39 µM. Under “Ac-VEGYRLFQQIS-NH2 [array2.67, VEGYRLFQQIS]” stands 8.14 µM; under “Ac-VTGYRLFEEEL-NH2 [array2.54, VTGYRLFEEEL]”, 68.3 µM; under “Ac-VTGYRLFEEIL-NH2 [array2.52, VTGYRLFEEIL]”, 104 µM. Under “Ac-VTGYRLFEKAL-NH2 [array2.47, VTGYRLFEKAL]” stands 1.81 µM; under “Ac-VTGYRLFEKAS-NH2 [array2.20, VTGYRLFEKAS]”, 1.79 µM; under “Ac-VTGYRLFEKEL-NH2 [array2.48, VTGYRLFEKEL]”, 2.44 µM. Under “Ac-VTGYRLFEKIL-NH2 [array2.46, VTGYRLFEKIL]” stands 1.92 µM; under “Ac-VTGYRLFEQAL-NH2 [array2.50, VTGYRLFEQAL]”, 40.4 µM; under “Ac-VTGYRLFEQAS-NH2 [array2.23, VTGYRLFEQAS]”, 4.17 µM. In turn, “Ac-VTGYRLFEQEL-NH2 [array2.51, VTGYRLFEQEL]” yielded an equilibrium dissociation constant (Kd) of 85 µM. Compared with the last compound, the Kd is about 20-fold higher. Then “Ac-VTGYRLFEQES-NH2 [array2.24, VTGYRLFEQES]”, with 7.83 µM. Then “Ac-VTGYRLFEQIL-NH2 [array2.49, VTGYRLFEQIL]”, with 124 µM; and “Ac-VTGYRLFEQIS-NH2 [array2.22, VTGYRLFEQIS]”, with 10.8 µM; and “Ac-VTGYRLFKEAL-NH2 [array2.35, VTGYRLFKEAL]”, with 5.15 µM.

Regarding “Ac-VTGYRLFKEAS-NH2 [array2.8, VTGYRLFKEAS]”, the Kd came to 2.57 µM.

“Ac-VTGYRLFKEEL-NH2 [array2.36, VTGYRLFKEEL]” displayed a Kd of 7.78 µM.

The compound “Ac-VTGYRLFKEES-NH2 [array2.9, VTGYRLFKEES]” returned a Kd of 3.86 µM. Then “Ac-VTGYRLFKEIL-NH2 [array2.34, VTGYRLFKEIL]”, with 4.41 µM; and “Ac-VTGYRLFKEIS-NH2 [array2.7, VTGYRLFKEIS]”, with 4.44 µM; and “Ac-VTGYRLFKKAL-NH2 [array2.29, VTGYRLFKKAL]”, with 0.275 µM.

“Ac-VTGYRLFKKAS-NH2 [array2.2, VTGYRLFKKAS]” came in with a dissociation constant Kd of 0.241 µM.

“Ac-VTGYRLFKKEL-NH2 [array2.30, VTGYRLFKKEL]” registered a Kd of 0.671 µM. Then “Ac-VTGYRLFKKES-NH2 [array2.3, VTGYRLFKKES]”, with 0.773 µM; and “Ac-VTGYRLFKKIL-NH2 [array2.28, VTGYRLFKKIL]”, with 0.0766 µM; and “Ac-VTGYRLFKKIS-NH2 [array2.1, VTGYRLFKKIS]”, with 0.0133 µM. Then “Ac-VTGYRLFKQAL-NH2 [array2.32, VTGYRLFKQAL]”, with 3.56 µM; and “Ac-VTGYRLFKQAS-NH2 [array2.5, VTGYRLFKQAS]”, with 1.95 µM. Then “Ac-VTGYRLFKQEL-NH2 [array2.33, VTGYRLFKQEL]”, with 1.95 µM. The compound “Ac-VTGYRLFKQES-NH2 [array2.6, VTGYRLFKQES]” displayed a dissociation constant Kd of 1.35 µM.

The compound “Ac-VTGYRLFKQIL-NH2 [array2.31, VTGYRLFKQIL]” showed a Kd of 2.99 µM. Regarding “Ac-VTGYRLFKQIS-NH2 [array2.4, VTGYRLFKQIS]”, the Kd was found to be 0.746 µM. Then “Ac-VTGYRLFQEAL-NH2 [array2.44, VTGYRLFQEAL]”, with 16 µM; and “Ac-VTGYRLFQEEL-NH2 [array2.45, VTGYRLFQEEL]”, with 35.4 µM. In turn, “Ac-VTGYRLFQEES-NH2 [array2.18, VTGYRLFQEES]” showed a Kd of 67.3 µM.

In turn, “Ac-VTGYRLFQEIL-NH2 [array2.43, VTGYRLFQEIL]” showed a Kd of 17.3 µM.

As to “Ac-VTGYRLFQEIS-NH2 [array2.16, VTGYRLFQEIS]”, the Kd worked out at 2.56 µM.

The compound “Ac-VTGYRLFQKAL-NH2 [array2.38, VTGYRLFQKAL]” showed a Kd of 0.975 µM. This Kd is about 2.6-fold lower than that of the compound before. Under “Ac-VTGYRLFQKAS-NH2 [array2.11, VTGYRLFQKAS]” stands 0.748 µM; under “Ac-VTGYRLFQKEL-NH2 [array2.39, VTGYRLFQKEL]”, 2.48 µM; under “Ac-VTGYRLFQKES-NH2 [array2.12, VTGYRLFQKES]”, 0.417 µM. Compound “Ac-VTGYRLFQKIL-NH2 [array2.37, VTGYRLFQKIL]” gave a Kd of 0.362 µM. Then “Ac-VTGYRLFQKIS-NH2 [array2.10, VTGYRLFQKIS]”, with 0.0812 µM; and “Ac-VTGYRLFQQAS-NH2 [array2.14, VTGYRLFQQAS]”, with 1.11 µM; and “Ac-VTGYRLFQQEL-NH2 [array2.42, VTGYRLFQQEL]”, with 19 µM. Under “Ac-VTGYRLFQQES-NH2 [array2.15, VTGYRLFQQES]” stands 7.49 µM; under “Ac-VTGYRLFQQIL-NH2 [array2.40, VTGYRLFQQIL]”, 122 µM. “Ac-VTGYRLFQQIS-NH2 [array2.13, VTGYRLFQQIS]”: the Kd is 0.876 µM.
